The values below come from patent US11858925B2, “GAS41 inhibitors and methods of use thereof” (The Regents of the University of Michigan, priority 2020, dated 2024).

pIC50: −log10 of the molar value. Where two headings read alike, the source gives them in different places. A value given as a limit tells only on which side of the number the result lay.

Assay [1] concerns the target T1, His6-tagged full-length GAS41 (Homo sapiens, UniProt O95619).
T1 construct: using His6-tagged full-length GAS41 and biotinylated-, di-crotonylated-H3 peptide
Kind of assay: AlphaScreen competition assay with full-length GAS41 and biotin-H3K23crK27cr. Format: binding. How it is done: An AlphaScreen competition assay was also developed using His6-tagged full-length GAS41 and biotinylated-, di-crotonylated-H3 peptide (biotin-H3K23crK27cr). For full-length protein competition experiments, 100 nM MOCR-his6-Gas41 protein was incubated with 100× competitor in 50 mM HEPES pH 7.5, 100 mM NaCl, 1 mM TCEP, 0.05% BSA, 0.01% Tween-20 for 1 hour at 1% DMSO in a 96-well ½-Area AlphaPlate. H3K23crK27cr-biotin was added to a final concentration of 25 nM and incubated for 1 hour. Nickel Chelate Acceptor AlphaScreen beads were added to a final concentration of 10 μg/mL and incubated for 1 hour. Streptavidin Donor AlphaScreen beads were added to a final concentration of 10 μg/mL and incubated for 2 hours. Alpha signal was measured on a Pherastar plate reader.
(In general: Bead proximity is the source of the signal in Alpha formats.)

The target in assay [2] is T2, 15N-labeled GAS41 YEATS domain (Homo sapiens, UniProt O95619).
T2 construct: GAS41 YEATS domain were also compared by NMR
In words: 1H-15N HSQC NMR binding to 15N-labeled GAS41 YEATS domain. The conditions noted are these: 60 μM 15N-labeled GAS41 YEATS; 60 μM Compound 85 or 30 μM Compound 223. The protocol:
FIGS. 2A-2C show data for activities of compounds disclosed herein. A) Results of a dimerization assay to determine bivalent inhibitor-induced dimerization of GAS41 YEATS domain, as described in Example 6. B) ^1H-^15N HSQC spectrum of 60 μM ^15N-labeled GAS41 YEATS domain (black) and in presence of 60 μM Compound 85 (red). C) ^1H-^15N HSQC spectrum of 60 μM ^15N-labeled GAS41 YEATS domain in presence of 30 μM Compound 223 (red).
(§1) The signal was further decreased at highest compound concentrations, and indicates saturation of YEATS domain via independent inhibitor molecules (Hook effect).

Assay [3] has as its target T3, GAS41 YEATS domain (Homo sapiens, UniProt O95619).
T3 construct: 500 nM his6-Gas41(13-158) and 250 nM avi-Gas41-YEATS were incubated; His-tagged and biotin-labeled Avi-tagged GAS41 YEATS domain constructs
In words: AlphaScreen dimerization assay with his6-Gas41(13-158) and avi-Gas41-YEATS. The conditions noted are these: titration of his6-Gas41(13-158) and avi-Gas41-YEATS; Hook effect at highest concentrations. Type of assay: binding. How it is done: An AlphaScreen assay based on His-tagged and biotin-labeled Avi-tagged GAS41 YEATS domain constructs was developed. For dimerization experiments, 500 nM his6-Gas41(13-158) and 250 nM avi-Gas41-YEATS were incubated in 50 mM HEPES pH 7.5, 100 mM NaCl, 1 mM TCEP, 0.05% BSA, 0.01% Tween-20 in a 96-well ½-Area AlphaPlate incubated for 30 minutes. Compounds 221 and 223 were added to a final concentration of 250 nM at 1% DMSO. Nickel Chelate Acceptor AlphaScreen beads were added to a final concentration of 10 μg/mL and incubated for 1 hour. Streptavidin Donor AlphaScreen beads were added to a final concentration of 10 μg/mL and incubated for 2 hours. For competition experiments with the dimeric complex, 500 nM his-Gas41(13-158) and 250 nM avi-Gas41-YEATS were incubated in assay buffer with 250 nM dimeric inhibitor for 30 minutes before the addition of monomeric competitor. AlphaScreen beads were added as in previous experiments. Alpha signal was measured on a Pherastar plate reader.
as §1

The subject of assay [4] is H1299 cells. Kind of assay: Growth inhibition of H1299 cells. Format: cell-based. The conditions noted are these: for GI50: Homo sapiens. How it is done: (§2) To investigate cellular activity of GAS41 inhibitors, H1299 cells were treated with monomeric Compound 88 and dimeric Compound 221 for 4 days. […] To determine whether growth inhibition is dependent on presence of GAS41 we developed A549 GAS41 knocked-out cells using the CRISPR/CAS9 system. We found GAS41-KO were viable but grew more slowly compare with parental A549 cells and had reduced growth by ˜70% at day 14 (FIG. 4B). […] Next, we evaluated the effect of Compound 221 on growth of two NSCLC cell lines H1299 and H1933 with GAS41 amplification. […] Such effect correlates closely with activity of Compound 221 in NanoBit assay (FIG. 3). To further validate on-target activity of Compound 221, we tested expression of GAS41 target genes in H1299 (Hsu 2018). […] Altogether, dimeric inhibitor Compound 221 reduces binding of GAS41 to acetylated H3.3 in cells and induces on-target growth inhibition in NSCLCs lines.

Assay [5] relates to A549 GAS41-KO cells. Kind of assay: Growth of A549 GAS41 knocked-out cells. Type of assay: cell-based. The protocol:
as §2

Assay [6] deals with H1933 cells. Kind of assay: Growth inhibition of H1933 cells. Type of assay: cell-based. As to conditions: 336 h, day 14. How it is done:
as §2

Assay [7] has as its target T4, GAS41-WT interaction with H3.3 (Homo sapiens, UniProt O95619).
T4 construct: expressed in transfected cells; host or cells: HEK293T
In words: NanoBiT assay, LgBiT-GAS41-WT and SmBiT-H3.3 in HEK293T cells. The conditions noted are these: 24 h treatment, 293T cells, estimated, read-out: IC50, inhibition of the luminescence signal. Format: cell-based. The protocol:
A NanoBiT assay (Promega Corporation, Madison, WI) was developed to detect inhibition of protein-protein interaction in HEK293T cells by compounds. GAS41-WT and GAS41-W93A mutant were cloned into pBiT1.1-C[TK/LgBiT] vector. SmBiT-H3.3 was purchased from Promega. HEK293T cells (4×10E5) were plated into 6-well plates (DMEM with 10% FBS) and incubated for 5 h. The LgBiT-GAS41 and SmBiT-H3.3 plasmids were co-transfected using FuGENE HD for 42 h. 5×10^4 cells were transferred into 96-well white plates (DMEM with 10% FBS and 1% Penicillin and Streptomycin) and treated with compounds for 24 h. After the Nano-Glo Live Cell Reagent was added to each well, the luminescence was measured immediately using PHERAstar FS instrument.
Introduction of a point mutation W93A in LgBit GAS41 abolishing histone recognition (Hsu 2018) largely diminished luminescence signal and validates the NanoBit assay.

In assay [8] the test system is A549 cells. Kind of assay: Growth inhibition of A549 cells. Format: cell-based. As to conditions: Homo sapiens, 12 μM concentration. The protocol:
as §2

[9] abbreviates: AlphaScreen assay, bin Less than 500 nM, read-out: GAS41 YEATS inhibitor IC50.

T1 sequence (O95619 whole entry): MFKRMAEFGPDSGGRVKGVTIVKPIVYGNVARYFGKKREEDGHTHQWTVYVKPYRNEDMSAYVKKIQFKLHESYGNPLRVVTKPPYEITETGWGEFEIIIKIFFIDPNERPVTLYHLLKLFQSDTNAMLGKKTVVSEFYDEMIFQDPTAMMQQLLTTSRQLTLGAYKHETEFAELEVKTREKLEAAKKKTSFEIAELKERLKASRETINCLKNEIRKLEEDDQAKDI
T2 sequence (O95619 15-158 limits assumed): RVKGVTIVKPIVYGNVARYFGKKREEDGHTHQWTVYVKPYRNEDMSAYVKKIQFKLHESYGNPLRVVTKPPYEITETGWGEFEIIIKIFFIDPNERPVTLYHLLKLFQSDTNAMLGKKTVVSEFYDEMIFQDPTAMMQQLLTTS
T3 sequence (O95619 13-158 limits assumed): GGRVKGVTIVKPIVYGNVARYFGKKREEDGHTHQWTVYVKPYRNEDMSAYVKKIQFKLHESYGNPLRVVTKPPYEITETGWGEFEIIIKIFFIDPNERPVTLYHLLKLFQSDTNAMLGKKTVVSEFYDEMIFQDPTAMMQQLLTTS
T3 sequence (O95619 15-158 limits assumed): as the sequence (O95619 15-158 limits assumed) above
T4 sequence (O95619 whole entry): as the sequence (O95619 whole entry) above

As a reminder, the pIC50 is −log10 of the IC50, conventionally taken in molar units. For `CN(C(=O)C1C[C@@H](OCCCCCCO[C@H]2CN[C@H](C(=O)N(C)c3ccc(C(=O)N4CC(c5nccs5)C4)s3)C2)CN1)c1ccc(C(=O)N2CC(c3nccs3)C2)s1` (stereo partly shown) [Compound 217], the negative-log IC50 (pIC50) in assay [1] (setting [9]) is more than 6.30.
As for `O=C(Nc1ccc(C(=O)N2CC(c3nccs3)C2)s1)[C@@H]1CCCN1` [Compound 85, (S)—N-(5-(3-(thiazol-2-yl)azetidine-1-carbonyl)thiophen-2-yl)pyrrolidine-2-carboxamide], the “broadening of NMR signals (formation of a larger dimeric complex)” value in assay [2] was “not monomeric Compound 85”.
Consider `O=C(Nc1ccc(C(=O)N2CC(c3nccs3)C2)s1)[C@@H]1C[C@@H](OCCCCCCO[C@H]2CN[C@H](C(=O)Nc3ccc(C(=O)N4CC(c5nccs5)C4)s3)C2)CN1` [Compound 223, (2S,2′S,4R,4′R)-4,4′-(hexane-1,6-diylbis(oxy))bis(N-(5-(3-(thiazol-2-yl)azetidine-1-carbonyl)thiophen-2-yl)pyrrolidine-2-carboxamide)], for which the “luminescence signal reflecting formation of the dimeric complex” value in assay [3] is “increase of luminescence signal”. The negative-log IC50 (pIC50) in assay [1] (setting [9]) is more than 6.30. For the same compound, in assay [2], the “broadening of NMR signals (formation of a larger dimeric complex)” value is “induces very substantial broadening of signals”.
On to `CC(C)(C)c1ccc(C(=O)N2CCCC2)s1` [Compound 134, (5-(tert-butyl)thiophen-2-yl)(pyrrolidin-1-yl)methanone], for which the pIC50 in assay [1] (AlphaScreen, 100 nM MOCR-his6-Gas41, 25 nM H3K23crK27cr-biotin, read-out: IC50) is 4.14.
As to `CC(=O)NCCCCCCN(Cc1cccc(-c2cnc(C3CN(C(=O)c4ccc(NC(=O)C5CCCN5)s4)C3)s2)c1)Cc1cccc(-c2cnc(C3CN(C(=O)c4ccc(NC(=O)[C@@H]5CCCN5)s4)C3)s2)c1` (stereo partly shown) [Compound 213], in assay [1] (setting [9]), the pIC50 was more than 6.30.
For `O=C(Nc1ccc(C(=O)N2CC(c3nc4ccccc4s3)C2)s1)[C@@H]1C[C@@H](OCCCCCCO[C@H]2CN[C@H](C(=O)Nc3ccc(C(=O)N4CC(c5nc6ccccc6s5)C4)s3)C2)CN1` [Compound 218], in assay [1] (setting [9]), the negative logarithm of the IC50 (pIC50) was more than 6.30.
In the case of `O=C(Nc1ccc(C(=O)N2CC(c3ncc(-c4cccc(COCc5cccc(-c6cnc(C7CN(C(=O)c8ccc(NC(=O)[C@@H]9CCCN9)s8)C7)s6)c5)c4)s3)C2)s1)C1CCCN1` (stereo partly shown) [Compound 210], the negative logarithm of the IC50 (pIC50) in assay [1] (setting [9]) was more than 6.30.
For `O=C(Nc1ccc(C(=O)N2CC(c3ncc(-c4cccc(CNCc5cccc(-c6cnc(C7CN(C(=O)c8ccc(NC(=O)[C@@H]9CCCN9)s8)C7)s6)c5)c4)s3)C2)s1)C1CCCN1` (stereo partly shown) [Compound 211], in assay [1] (setting [9]), the negative-log IC50 (pIC50) was more than 6.30.
Consider `O=C(Nc1ccc(C(=O)N2CC(c3nc4ccccc4s3)C2)s1)[C@@H]1C[C@@H](OCCCCCCCCO[C@H]2CN[C@H](C(=O)Nc3ccc(C(=O)N4CC(c5nc6ccccc6s5)C4)s3)C2)CN1` [Compound 219], for which, in assay [1] (setting [9]), the negative-log IC50 (pIC50) is more than 6.30.
The same measure, in the same setting: under `CN(Cc1cccc(-c2cnc(C3CN(C(=O)c4ccc(NC(=O)C5CCCN5)s4)C3)s2)c1)Cc1cccc(-c2cnc(C3CN(C(=O)c4ccc(NC(=O)[C@@H]5CCCN5)s4)C3)s2)c1` (stereo partly shown) [Compound 212] stands more than 6.30; under `O=C(Nc1ccc(C(=O)N2CC(c3nccs3)C2)s1)[C@@H]1C[C@@H](OCc2ccc(CO[C@H]3CN[C@H](C(=O)Nc4ccc(C(=O)N5CC(c6nccs6)C5)s4)C3)cc2)CN1` [Compound 222], more than 6.30.
In general, GI50 refers to the concentration at which growth is held to half of that of the control. A lower GI50 goes with greater sensitivity of the cells. As a reminder, the inhibition is the percentage by which the read-out fell short of the control. Low values mean a response near the control, high ones a response far below the control. As for `O=C(Nc1ccc(C(=O)N2CC(c3nc4ccccc4s3)C2)s1)[C@@H]1C[C@@H](OCCCCO[C@H]2CN[C@H](C(=O)Nc3ccc(C(=O)N4CC(c5nc6ccccc6s5)C4)s3)C2)CN1` [Compound 221], the GI50 is approximately 3 µM in assay [4] (NCI-H1299, 96 h, H1299 cells treated for 4 days); approximately 6 µM in assay [4] (NCI-H1299, 336 h, H1299 cells, day 14); approximately 6 µM in assay [6]. Also, the pIC50 in assay [1] (setting [9]) was more than 6.30; in assay [7], 5.22. For the same compound, the effect on growth entry in assay [5] is reported as “no effect”. The inhibition at 12 µM in assay [8] was approximately 40%.
As for `O=C(Nc1ccc(C(=O)N2CC(c3nccs3)C2)s1)[C@@H]1C[C@@H](OCCCCCCCCO[C@H]2CN[C@H](C(=O)Nc3ccc(C(=O)N4CC(c5nccs5)C4)s3)C2)CN1` [Compound 220], the pIC50 in assay [1] (setting [9]) was more than 6.30.
Regarding `O=C(Nc1ccc(C(=O)N2CC(c3nc4ccccc4s3)C2)s1)[C@@H]1CCCN1` [Compound 88], the “dose dependent growth inhibition” value in assay [4] (H1299 cells treated for 4 days) is “Only the dimer Compound 221 induces dose dependent growth inhibition”.
